Here are results for 56 compounds from the RepoRT retention time repository (doi:10.1021/acs.analchem.1c00972).

Structures can show the parent of a compound that is named as a salt.

Holding throughout (details): stereoisomer not certain
The nature of data set [1]: RP, Waters ACQUITY UPLC BEH C18, 100 × 1 mm, 1.7 µm, 50 °C, 0.3 mL/min, estimated dead time 0.17 min; A: water + 10 mM ammonium bicarbonate; B: 10% water + 90% methanol + 10 mM ammonium bicarbonate; gradient (min/%B) 0/0 15/100 21/100 22/0 30/0.
The nature of data set [2]: RP, Waters ACQUITY UPLC BEH C18, 100 × 1 mm, 1.7 µm, 50 °C, 0.3 mL/min, estimated dead time 0.17 min; A: water + 0.1% formic acid + 20 mM ammonium formate; B: methanol + 0.1% formic acid + 20 mM ammonium formate; gradient (min/%B) 0/0 15/100 21/100 22/0 30/0.
Data set [3] is described as follows: RP, Phenomenex Synergi Polar-RP, 100 × 3 mm, 2.5 µm, 40 °C, 0.4 mL/min, estimated dead time 1.1 min; A: water + 1 mM ammonium fluoride; B: methanol + 1 mM ammonium fluoride; C: acetonitrile; D: 50% isopropanol + 50% acetone; gradient (min/%B/%C/%D) 0/5/0/0 2/5/0/0 8/95/0/0 12/80/15/0 19/25/70/0 19.5/0/25/70 21.5/0/25/70 22.5/0/25/0 23/5/0/0.

As for `Oc1cccc2ccccc12` [1-Naphthol], the LC retention time in data set [1] is 12.7 min; in data set [2] it was 12.5 min; in data set [3] it was 10 min.

Turning to `O=S(=O)(O)c1ccc2ccccc2c1` [2-Naphthalene sulfonic acid], the figures for the LC retention time in data set [1], in data set [2] and in data set [3] were 8.6 min, 8.66 min and 7.25 min, respectively.

`Oc1ccccc1-c1ccccc1` [2-Phenylphenol]: the LC retention time is 13.9 min in data set [1] and 9.93 min in data set [3].

For the compound `O=c1[nH]c2ccccc2s1` [2-hydroxybenzothiazole], the LC retention time in data set [1] is 10.5 min; in data set [2], 10.6 min; in data set [3] it was 9.61 min.

As to `Oc1ccc(Cl)cc1` [4-Chlorophenol], the results for the LC retention time in data set [1] and in data set [3] were 11.3 min and 8.39 min, respectively.

Take `CC(C)(c1ccccc1)c1ccc(O)cc1` [4-Cumylphenol]: the LC retention time in data set [1] was 15.7 min; in data set [3], 11.1 min.

For the compound `O=C(O)CCC(=O)c1ccc(F)cc1` [4-Fluorobenzoylpropionic acid], the values for the LC retention time in data set [1], in data set [2] and in data set [3] were 7.83 min, 10.5 min and 8.54 min, respectively.

Regarding `O=[N+]([O-])c1ccc(O)cc1` [4-Nitrophenol], the LC retention time in data set [1] was 3.3 min; in data set [2], 9.08 min; in data set [3] it was 9.25 min.

On to `CCCCCCCCCc1ccc(O)cc1` [4-n-Nonylphenol], for which the LC retention time in data set [1] was 18.1 min; in data set [3], 11.6 min.

As for `O=c1[nH]cc(F)c(=O)[nH]1` [5-Fluorouracil], the LC retention time is 7.72 min in data set [2] and 2.09 min in data set [3].

For `CCCc1cc(=O)[nH]c(=S)[nH]1` [6-Propyl-2-thiouracil], the LC retention time in data set [2] was 7.69 min; in data set [3] it was 8.14 min.

On to `CC1=CC(=O)NS(=O)(=O)O1` [Acesulfame], for which the LC retention time in data set [1] was 2.41 min; in data set [2], 2.66 min; in data set [3], 2.11 min.

Take `CC(C)N1C(=O)c2ccccc2NS1(=O)=O` [Bentazone]: the LC retention time was 7.66 min in data set [1], 11.5 min in data set [2] and 7.2 min in data set [3].

`O=S(=O)(O)c1ccccc1` [Benzenesulfonic acid]: the results for the LC retention time in data set [1], in data set [2] and in data set [3] were 2.77 min, 2.96 min and 2.01 min, respectively.

Consider `O=C(O)c1cc(Oc2ccc(Cl)cc2Cl)ccc1[N+](=O)[O-]` [Bifenox free acid], for which the LC retention time in data set [1] is 13.2 min; in data set [2] it was 14.3 min; in data set [3], 9.15 min.

With `CC(C)(c1ccc(O)cc1)c1ccc(O)cc1` [Bisphenol A], the LC retention time in data set [2] is 18.3 min; in data set [3] it was 10.3 min.

As for `Oc1ccc(Cc2ccc(O)cc2)cc1` [Bisphenol F], the LC retention time in data set [1] is 11.9 min; in data set [3], 9.94 min.

As to `Oc1c(Br)cc(Cl)cc1Cc1cc(Cl)cc(Br)c1O` [Bromochlorophen], the LC retention time is 16.4 min in data set [1], 17.3 min in data set [2] and 11.2 min in data set [3].

Consider `CCCCOC(=O)c1ccc(O)cc1` [Butylparaben], for which the LC retention time in data set [1] is 14 min; in data set [3], 10.6 min.

For the compound `Oc1ccc(Cl)cc1Cc1ccccc1` [Chlorophene], the LC retention time was 15.9 min in data set [1] and 11.2 min in data set [3].

As for `N#Cc1c(O)c(Cl)c(Cl)c(C#N)c1Cl` [Chlorothalonil-4-hydroxy], the figures for the LC retention time in data set [1], in data set [2] and in data set [3] were 11.8 min, 12.3 min and 9.06 min, respectively.

For the compound `O=S(=O)(O)NC1CCCCC1` [Cyclamate], the LC retention time was 6.33 min in data set [1], 6.54 min in data set [2] and 2.74 min in data set [3].

For the compound `CCCCCCCCCCOS(=O)(=O)O` [Decyl sulfate], the LC retention time in data set [1] is 15.1 min; in data set [2] it was 14.8 min; in data set [3], 9.26 min.

As to `Oc1ccc(Cl)cc1Cc1cc(Cl)ccc1O` [Dichlorophen], the LC retention time in data set [1] is 15.1 min; in data set [2], 15.2 min; in data set [3], 10.9 min.

As to `CC(Oc1ccc(Cl)cc1Cl)C(=O)O` (stereo not drawn) [Dichlorprop], the LC retention time in data set [1] is 11.8 min; in data set [2], 14 min; in data set [3], 8.48 min.

For the compound `CCC(C)c1cc([N+](=O)[O-])cc([N+](=O)[O-])c1O` (stereo not drawn) [Dinoseb], the LC retention time in data set [1] was 12.4 min; in data set [2], 15.5 min; in data set [3] it was 10 min.

For `CCCCCCCCCCCCOS(=O)(=O)O` [Dodecyl sulfate], the results for the LC retention time in data set [1], in data set [2] and in data set [3] were 16.4 min, 16.2 min and 9.67 min, respectively.

Regarding `CCCCCCCCCCCCc1ccccc1S(=O)(=O)O` [Dodecylbenzenesulfonic acid], the LC retention time is 17.5 min in data set [1], 17.2 min in data set [2] and 10.1 min in data set [3].

In the case of `CCOC(=O)c1ccc(O)cc1` [Ethylparaben], the LC retention time is 11.1 min in data set [1], 11.6 min in data set [2] and 9.81 min in data set [3].

Turning to `N#Cc1nn(-c2c(Cl)cc(C(F)(F)F)cc2Cl)c(N)c1C(F)(F)F` [Fipronil desulfinyl], the figures for the LC retention time in data set [1], in data set [2] and in data set [3] were 15.4 min, 15.1 min and 10.9 min, respectively.

For `CC(C)Cc1ccc(C(C)C(=O)O)cc1` (stereo not drawn) [Ibuprofen], the LC retention time in data set [2] is 14.1 min; in data set [3], 10.3 min.

On to `COc1ccc2c(c1)c(CC(=O)O)c(C)n2C(=O)c1ccc(Cl)cc1` [Indometacin], for which the values for the LC retention time in data set [2] and in data set [3] were 15.4 min and 10.5 min, respectively.

With `Cc1cc(Cl)ccc1OCC(=O)O` [MCPA], the LC retention time in data set [3] is 8.16 min.

`Cc1cc(Cl)ccc1OC(C)C(=O)O` (stereo not drawn) [Mecoprop]: the LC retention time in data set [3] was 8.57 min.

In the case of `Cc1cccc(Nc2ccccc2C(=O)O)c1C` [Mefenamic acid], in data set [3], the LC retention time is 10.6 min.

Regarding `Cc1cccc(C)c1N(Cn1cccn1)C(=O)CS(=O)(=O)O` [Metazachlor ESA], the LC retention time in data set [3] was 7.83 min.

Regarding `CCc1cccc(C)c1N(C(=O)CS(=O)(=O)O)C(C)COC` (stereo not drawn) [Metolachlor ESA], the LC retention time in data set [1] was 12.1 min; in data set [3] it was 8.57 min.

Turning to `CCc1cccc(C)c1N(C(=O)C(=O)O)C(C)COC` (stereo not drawn) [Metolachlor OA], the LC retention time in data set [3] was 8.42 min.

In the case of `CC(C)(O)c1ccccc1CCC(SCC1(CC(=O)O)CC1)c1cccc(C=Cc2ccc3ccc(Cl)cc3n2)c1` (stereo not drawn) [Montelukast], the LC retention time in data set [1] is 16.6 min; in data set [3] it was 11.9 min.

Consider `COc1c(C)c2c(c(O)c1CC=C(C)CCC(=O)O)C(=O)OC2` [Mycophenolic acid], for which the LC retention time in data set [3] was 10.3 min.

On to `CCOC(=O)C1=C(C)NC(C)=C(C(=O)OC)C1c1cccc([N+](=O)[O-])c1` (stereo not drawn) [Nitrendipin], for which, in data set [3], the LC retention time was 11.2 min.

`O=C1CN(N=Cc2ccc([N+](=O)[O-])o2)C(=O)N1` [Nitrofurantoin]: the LC retention time in data set [3] is 8.69 min.

Consider `CCCN(CCC)c1c([N+](=O)[O-])cc(S(N)(=O)=O)cc1[N+](=O)[O-]` [Oryzalin], for which the LC retention time in data set [3] is 11.2 min.

Consider `O=c1[nH]c(=O)c2cn[nH]c2[nH]1` [Oxypurinol], for which the LC retention time in data set [3] is 2.44 min.

As to `O=S(=O)(O)C(F)(F)C(F)(F)C(F)(F)C(F)(F)C(F)(F)C(F)(F)C(F)(F)C(F)(F)F` [Perfluorooctanesulfonic acid], the LC retention time in data set [1] was 15.5 min; in data set [3], 9.25 min.

As for `O=S(=O)(O)c1ccc2nc(-c3ccccc3)[nH]c2c1` [Phenylbenzimidazole sulfonic acid], the LC retention time in data set [3] was 7.44 min.

For the compound `NC(=O)c1ccccc1C(=O)O` [Phthalamic acid], in data set [3], the LC retention time was 2.24 min.

In the case of `CCC(=O)Nc1ccc(Cl)c(Cl)c1` [Propanil], the LC retention time in data set [3] is 10.6 min.

Turning to `O=C(c1ccc(OCCN2CCCCC2)cc1)c1c(-c2ccc(O)cc2)sc2cc(O)ccc12` [Raloxifene], in data set [3], the LC retention time was 16.2 min.

With `OCC1OC(OC2(CCl)OC(CCl)C(O)C2O)C(O)C(O)C1Cl` (stereo not drawn) [Sucralose], the LC retention time in data set [3] was 8 min.

As to `CS(=O)(=O)c1ccc(C(=O)C2C(=O)CCCC2=O)c(Cl)c1` [Sulcotrione], in data set [3], the LC retention time was 7.69 min.

`Cc1ccc(C(C)C)c(O)c1` [Thymol]: the LC retention time in data set [1] was 14.7 min; in data set [3], 10.6 min.

On to `O=C(Nc1ccc(Cl)cc1)Nc1ccc(Cl)c(Cl)c1` [Triclocarban], for which the LC retention time in data set [3] is 11.3 min.

Regarding `Oc1cc(Cl)ccc1Oc1ccc(Cl)cc1Cl` [Triclosan], the LC retention time in data set [3] was 11.5 min.

For `CCCCC(=O)N(Cc1ccc(-c2ccccc2-c2nn[nH]n2)cc1)C(C(=O)O)C(C)C` (stereo not drawn) [Valsartan], in data set [3], the LC retention time was 9.29 min.

In the case of `Cc1cc(O)ccc1Cl` [p-Chlorocresol], the values for the LC retention time in data set [1] and in data set [3] were 13 min and 8.57 min, respectively.
